# Key:
# Assay in all cases: cells
# Type in all cases: functional, cell-based
# Settings in all cases: Homo sapiens
# EFM-19 = tested on: EFM-19;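 also: growth inhibition of human EFM-19 cells, measured in a cell viability assay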
# Description: SANGER: Inhibition of human EFM-19 cell growth in a cell viability assay.
# CAL-51 = tested on: CAL-51;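 also: human CAL-51 cell line, growth inhibition read out via a cell viability assay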
# Description: SANGER: Inhibition of human CAL-51 cell growth in a cell viability assay.
# AGS = tested on: AGS;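 also: growth inhibition of AGS cells, determined with a cell viability assay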
# Description: SANGER: Inhibition of human AGS cell growth in a cell viability assay.
# YAPC = tested on: YAPC;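 also: growth inhibition of YAPC cells, measured with a cell viability assay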
# Description: SANGER: Inhibition of human YAPC cell growth in a cell viability assay.
# RVH-421 = tested on: RVH-421
# Description: SANGER: Inhibition of human RVH-421 cell growth in a cell viability assay.
# Ca-Ski = tested on: Ca-Ski;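 also: cell viability assay measuring inhibition of Ca-Ski cell growth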
# Description: SANGER: Inhibition of human Ca-Ski cell growth in a cell viability assay.
# HPAF-II = tested on: HPAF-II;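 also: growth inhibition of HPAF-II cells, read out with a cell viability assay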
# Description: SANGER: Inhibition of human HPAF-II cell growth in a cell viability assay.
# M059J = tested on: M059J;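 also: growth inhibition of M059J cells, read out with a cell viability assay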
# Description: SANGER: Inhibition of human M059J cell growth in a cell viability assay.
# VMRC-RCZ = tested on: VMRC-RCZ;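 also: growth inhibition measured with a cell viability assay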
# Description: SANGER: Inhibition of human VMRC-RCZ cell growth in a cell viability assay.
# EGI-1 = tested on: EGI-1;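 also: cell viability readout used to gauge growth inhibition of EGI-1 cells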
# Description: SANGER: Inhibition of human EGI-1 cell growth in a cell viability assay.
# 769-P = tested on: 769-P
# Description: SANGER: Inhibition of human 769-P cell growth in a cell viability assay.
# CP50-MEL-B = tested on: CP50-MEL-B;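 also: growth inhibition of the human cell line, measured with a cell viability read-out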
# Description: SANGER: Inhibition of human CP50-MEL-B cell growth in a cell viability assay.
# U-251 = tested on: U-251;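 also: growth inhibition of human U-251 cells, read out through a cell viability assay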
# Description: SANGER: Inhibition of human U251 cell growth in a cell viability assay.
# NCI-H2347 = tested on: NCI-H2347;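 also: growth inhibition of the cell line, read out with a cell viability assay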
# Description: SANGER: Inhibition of human NCI-H2347 cell growth in a cell viability assay.
# OVCAR-8 = tested on: OVCAR-8;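 also: growth inhibition of human OVCAR-8 cells, read out by a cell viability assay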
# Description: SANGER: Inhibition of human OVCAR-8 cell growth in a cell viability assay.
# KYSE-140 = tested on: KYSE-140;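 also: cell viability assay measuring growth inhibition in human KYSE-140 cells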
# Description: SANGER: Inhibition of human KYSE-140 cell growth in a cell viability assay.
# SW948 = tested on: SW948;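 also: growth inhibition of SW948 cells, read out with a cell viability assay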
# Description: SANGER: Inhibition of human SW948 cell growth in a cell viability assay.
# CAL-85-1 = tested on: CAL-85-1;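 also: growth inhibition of human CAL-85-1 cells, read out with a cell viability assay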
# Description: SANGER: Inhibition of human CAL-85-1 cell growth in a cell viability assay.
# RERF-LC-MS = tested on: RERF-LC-MS;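 also: growth inhibition of human RERF-LC-MS cells, read out by a cell viability assay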
# Description: SANGER: Inhibition of human RERF-LC-MS cell growth in a cell viability assay.
# P12-Ichikawa = tested on: P12-Ichikawa
# COLO-679 = tested on: COLO-679
# Description: SANGER: Inhibition of human COLO-679 cell growth in a cell viability assay.
# SW1463 = tested on: SW1463;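 also: growth inhibition of SW1463 cells, determined with a cell viability assay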
# Description: SANGER: Inhibition of human SW1463 cell growth in a cell viability assay.
# NCI-H2009 = tested on: NCI-H2009;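 also: cell viability assay measuring inhibition of NCI-H2009 cell growth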
# Description: SANGER: Inhibition of human NCI-H2009 cell growth in a cell viability assay.
# T47D = tested on: T47D;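 also: growth inhibition of human T47D cells, measured with a cell viability assay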
# Description: SANGER: Inhibition of human T47D cell growth in a cell viability assay.
# D-542MG = tested on: D-542MG
# Description: SANGER: Inhibition of human D-542MG cell growth in a cell viability assay.
# NCI-H727 = tested on: NCI-H727;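 also: growth inhibition of human NCI-H727 cells, read out with a cell viability assay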
# Description: SANGER: Inhibition of human NCI-H727 cell growth in a cell viability assay.
# Detroit 562 = tested on: Detroit 562;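 also: growth inhibition of human Detroit 562 cells, read out by a cell viability assay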
# Description: SANGER: Inhibition of human Detroit562 cell growth in a cell viability assay.
# SK-N-AS = tested on: SK-N-AS;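 also: growth inhibition of human SK-N-AS cells, measured with a cell viability assay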
# Description: SANGER: Inhibition of human SK-N-AS cell growth in a cell viability assay.
# T84 = tested on: T84;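 also: growth inhibition measured with a cell viability readout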
# Description: SANGER: Inhibition of human T84 cell growth in a cell viability assay.
# KYSE-450 = tested on: KYSE-450;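 also: cell growth inhibition measured by a viability assay in human KYSE-450 cells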
# Description: SANGER: Inhibition of human KYSE-450 cell growth in a cell viability assay.
# NCI-H1993 = tested on: NCI-H1993;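 also: growth inhibition of the cancer cell line, assessed with a cell viability assay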
# Description: SANGER: Inhibition of human NCI-H1993 cell growth in a cell viability assay.
# KP-4 = tested on: KP-4;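 also: human KP-4 cells, with growth inhibition read out through a cell viability assay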
# Description: SANGER: Inhibition of human KP-4 cell growth in a cell viability assay.
# UACC-893 = tested on: UACC-893
# Description: SANGER: Inhibition of human UACC-893 cell growth in a cell viability assay.
# CaR-1 = tested on: CaR-1;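 also: growth inhibition of human CaR-1 cancer cells, read out with a cell viability assay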
# Description: SANGER: Inhibition of human CaR-1 cell growth in a cell viability assay.
# NCI-N87 = tested on: NCI-N87;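 also: growth inhibition of human NCI-N87 cells, read out with a cell viability assay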
# Description: SANGER: Inhibition of human NCI-N87 cell growth in a cell viability assay.
# SK-MEL-24 = tested on: SK-MEL-24;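 also: growth inhibition read out by a cell viability assay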
# Description: SANGER: Inhibition of human SK-MEL-24 cell growth in a cell viability assay.
# RPMI-7951 = tested on: RPMI-7951
# Description: SANGER: Inhibition of human RPMI-7951 cell growth in a cell viability assay.
# BFTC-909 = tested on: BFTC-909
# Description: SANGER: Inhibition of human BFTC-909 cell growth in a cell viability assay.
# AU565 = tested on: AU565;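 also: cell viability assay measuring growth inhibition of human AU565 cells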
# Description: SANGER: Inhibition of human AU565 cell growth in a cell viability assay.
# TYK-nu = tested on: TYK-nu;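 also: growth inhibition of human TYK-nu cells, read out by a cell viability assay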
# Description: SANGER: Inhibition of human TYK-nu cell growth in a cell viability assay.
# C32 = tested on: C32;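 also: cell viability assay, with IC50 reflecting inhibition of C32 cell growth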
# Description: SANGER: Inhibition of human C32 cell growth in a cell viability assay.
# HT-3 = tested on: HT-3;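 also: growth inhibition measured with a cell viability readout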
# Description: SANGER: Inhibition of human HT-3 cell growth in a cell viability assay.
# UO-31 = tested on: UO-31;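 also: cell viability assay measuring inhibition of cell growth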
# Description: SANGER: Inhibition of human U031 cell growth in a cell viability assay.
# RMG-I = tested on: RMG-I;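 also: growth inhibition of human RMG-I cells, read out with a cell viability assay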
# Description: SANGER: Inhibition of human RMG-I cell growth in a cell viability assay.
smiles,measurement,setting,value
Cn1cc(/C=C2\C(=O)Nc3cccnc32)c2ccccc21,IC50,EFM-19,> 2000 nM
same,IC50,CAL-51,> 2000 nM
same,IC50,AGS,> 2000 nM
same,IC50,YAPC,> 2000 nM
same,IC50,RVH-421,> 2000 nM
same,IC50,Ca-Ski,> 2000 nM
same,IC50,HPAF-II,> 2000 nM
same,IC50,M059J,> 2000 nM
same,IC50,VMRC-RCZ,> 2000 nM
same,IC50,EGI-1,> 2000 nM
same,IC50,769-P,> 2000 nM
same,IC50,CP50-MEL-B,> 2000 nM
same,IC50,U-251,> 2000 nM
same,IC50,NCI-H2347,> 2000 nM
same,IC50,OVCAR-8,> 2000 nM
same,IC50,KYSE-140,> 2000 nM
same,IC50,SW948,> 2000 nM
same,IC50,CAL-85-1,> 2000 nM
same,IC50,RERF-LC-MS,> 2000 nM
same,IC50,P12-Ichikawa,> 2000 nM
same,IC50,COLO-679,> 2000 nM
same,IC50,SW1463,> 2000 nM
same,IC50,NCI-H2009,> 2000 nM
same,IC50,T47D,> 2000 nM
same,IC50,D-542MG,> 2000 nM
same,IC50,NCI-H727,> 2000 nM
same,IC50,Detroit 562,> 2000 nM
same,IC50,SK-N-AS,> 2000 nM
same,IC50,T84,> 2000 nM
same,IC50,KYSE-450,> 2000 nM
same,IC50,NCI-H1993,> 2000 nM
same,IC50,KP-4,> 2000 nM
same,IC50,UACC-893,> 2000 nM
same,IC50,CaR-1,> 2000 nM
same,IC50,NCI-N87,> 2000 nM
same,IC50,SK-MEL-24,> 2000 nM
same,IC50,RPMI-7951,> 2000 nM
same,IC50,BFTC-909,> 2000 nM
same,IC50,AU565,> 2000 nM
same,IC50,TYK-nu,> 2000 nM
same,IC50,C32,> 2000 nM
same,IC50,HT-3,> 2000 nM
same,IC50,UO-31,> 2000 nM
same,IC50,RMG-I,> 2000 nM
COc1cc(Nc2c(C#N)cnc3cc(OCCCN4CCN(C)CC4)c(OC)cc23)c(Cl)cc1Cl [BOSUTINIB],IC50,EFM-19,> 2000 nM
same,IC50,CAL-51,> 2000 nM
same,IC50,AGS,> 2000 nM
same,IC50,YAPC,> 2000 nM
same,IC50,RVH-421,> 2000 nM
same,IC50,Ca-Ski,> 2000 nM
same,IC50,HPAF-II,> 2000 nM
same,IC50,M059J,> 2000 nM
same,IC50,VMRC-RCZ,> 2000 nM
same,IC50,EGI-1,> 2000 nM
same,IC50,769-P,1700 nM
same,IC50,CP50-MEL-B,> 2000 nM
same,IC50,U-251,> 2000 nM
same,IC50,NCI-H2347,> 2000 nM
same,IC50,OVCAR-8,> 2000 nM
same,IC50,KYSE-140,1760 nM
same,IC50,SW948,> 2000 nM
same,IC50,CAL-85-1,> 2000 nM
same,IC50,RERF-LC-MS,> 2000 nM
same,IC50,P12-Ichikawa,> 2000 nM
same,IC50,COLO-679,> 2000 nM
same,IC50,SW1463,> 2000 nM
same,IC50,NCI-H2009,> 2000 nM
same,IC50,T47D,> 2000 nM
same,IC50,D-542MG,> 2000 nM
same,IC50,NCI-H727,> 2000 nM
same,IC50,Detroit 562,> 2000 nM
same,IC50,SK-N-AS,> 2000 nM
same,IC50,T84,> 2000 nM
same,IC50,KYSE-450,> 2000 nM
same,IC50,NCI-H1993,> 2000 nM
same,IC50,KP-4,> 2000 nM
same,IC50,UACC-893,> 2000 nM
same,IC50,CaR-1,> 2000 nM
same,IC50,NCI-N87,> 2000 nM
same,IC50,SK-MEL-24,> 2000 nM
same,IC50,RPMI-7951,> 2000 nM
same,IC50,BFTC-909,> 2000 nM
same,IC50,AU565,> 2000 nM
same,IC50,TYK-nu,> 2000 nM
same,IC50,C32,> 2000 nM
same,IC50,HT-3,> 2000 nM
same,IC50,UO-31,> 2000 nM
same,IC50,RMG-I,> 2000 nM
C[C@]12O[C@H](C[C@]1(O)CO)n1c3ccccc3c3c4c(c5c6ccccc6n2c5c31)CNC4=O [LESTAURTINIB],IC50,EFM-19,151 nM
same,IC50,CAL-51,278 nM
same,IC50,AGS,69.1 nM
same,IC50,YAPC,> 2000 nM
same,IC50,RVH-421,244 nM
same,IC50,Ca-Ski,> 2000 nM
same,IC50,HPAF-II,> 2000 nM
same,IC50,M059J,516 nM
same,IC50,VMRC-RCZ,82.9 nM
same,IC50,EGI-1,572 nM
same,IC50,769-P,1610 nM
same,IC50,CP50-MEL-B,632 nM
same,IC50,U-251,> 2000 nM
same,IC50,NCI-H2347,> 2000 nM
same,IC50,OVCAR-8,753 nM
same,IC50,KYSE-140,449 nM
same,IC50,SW948,> 2000 nM
same,IC50,CAL-85-1,> 2000 nM
same,IC50,RERF-LC-MS,812 nM
same,IC50,P12-Ichikawa,26.2 nM
same,IC50,COLO-679,383 nM
same,IC50,SW1463,> 2000 nM
same,IC50,NCI-H2009,1230 nM
same,IC50,T47D,> 2000 nM
same,IC50,D-542MG,> 2000 nM
same,IC50,NCI-H727,768 nM
same,IC50,Detroit 562,236 nM
same,IC50,SK-N-AS,145 nM
same,IC50,T84,> 2000 nM
same,IC50,KYSE-450,> 2000 nM
same,IC50,NCI-H1993,> 2000 nM
same,IC50,KP-4,568 nM
same,IC50,UACC-893,> 2000 nM
same,IC50,CaR-1,147 nM
same,IC50,NCI-N87,> 2000 nM
same,IC50,SK-MEL-24,> 2000 nM
same,IC50,RPMI-7951,318 nM
same,IC50,BFTC-909,249 nM
same,IC50,AU565,1650 nM
same,IC50,TYK-nu,185 nM
same,IC50,C32,182 nM
same,IC50,HT-3,449 nM
same,IC50,UO-31,> 2000 nM
same,IC50,RMG-I,> 2000 nM
C[C@]1(c2nc3c(C(N)=O)cccc3[nH]2)CCCN1 [VELIPARIB],IC50,EFM-19,> 5000 nM
same,IC50,CAL-51,> 5000 nM
same,IC50,AGS,> 5000 nM
same,IC50,YAPC,> 5000 nM
same,IC50,RVH-421,> 5000 nM
same,IC50,Ca-Ski,> 5000 nM
same,IC50,HPAF-II,> 5000 nM
same,IC50,M059J,> 5000 nM
same,IC50,VMRC-RCZ,> 5000 nM
same,IC50,EGI-1,> 5000 nM
same,IC50,769-P,> 5000 nM
same,IC50,CP50-MEL-B,> 5000 nM
same,IC50,U-251,> 5000 nM
same,IC50,NCI-H2347,> 5000 nM
same,IC50,OVCAR-8,> 5000 nM
same,IC50,KYSE-140,> 5000 nM
same,IC50,SW948,> 5000 nM
same,IC50,CAL-85-1,> 5000 nM
same,IC50,RERF-LC-MS,> 5000 nM
same,IC50,P12-Ichikawa,> 5000 nM
same,IC50,COLO-679,> 5000 nM
same,IC50,SW1463,> 5000 nM
same,IC50,NCI-H2009,> 5000 nM
same,IC50,T47D,> 5000 nM
same,IC50,D-542MG,> 5000 nM
same,IC50,NCI-H727,> 5000 nM
same,IC50,Detroit 562,> 5000 nM
same,IC50,SK-N-AS,> 5000 nM
same,IC50,T84,> 5000 nM
same,IC50,KYSE-450,> 5000 nM
same,IC50,NCI-H1993,> 5000 nM
same,IC50,KP-4,> 5000 nM
same,IC50,UACC-893,> 5000 nM
same,IC50,CaR-1,> 5000 nM
same,IC50,NCI-N87,> 5000 nM
same,IC50,SK-MEL-24,> 5000 nM
same,IC50,RPMI-7951,> 5000 nM
same,IC50,BFTC-909,> 5000 nM
same,IC50,AU565,> 5000 nM
same,IC50,TYK-nu,> 5000 nM
same,IC50,C32,> 5000 nM
same,IC50,HT-3,> 5000 nM
same,IC50,UO-31,> 5000 nM
same,IC50,RMG-I,> 5000 nM
